From US20050043180A1, “Optically active herbicidal (r)-phenoxypropionic acid-n-methyl-n-2-fluorophenyl amides” (priority 2001, published 2005)

Experiments:
[1] = system: Rice (ORYSA, Oryza sativa L. cv. Dongjin); assay: Leaf treatment test, damage to rice; format: in vivo
Description: (§1) Experimental Example 1: Leaf Treatment Test
(§2) Seeds of rice, wheat, barley, corn, cotton, barnyard grass, common sorgum, large crabgrass and fall panicum were seeded at a pot with a surface area of 600 cm^2. When barnyard grass grown in a green house kept at 20-30° C. had three leaves, wettable powder prepared by mixing 1 part by weight of the active compound, 5 parts by weight of acetone and 1 part by weight of emulsifier and diluted with water was applied directly to the leaves in 2000 L per hectare. The concentration of the spray liquid was so chosen the particular amounts of the active compound desired. 14 days after the treatment, the degree of damage to the plants was rated in % damage in comparison to the development of untreated control.

[2] = system: Barnyard grass (ECHCG, Echinochloa crus-galli Beauv. var. caudata Kitagawa); assay: Leaf treatment test, herbicidal activity on barnyard grass; format: in vivo
Description: as §1
as §2, with “[…],” for “When barnyard grass grown in a green house kept at 20-30° C. had three leaves,”

[3] = leaf treatment 2 g/ha, 14 days after treatment
[4] = leaf treatment 4 g/ha, 14 days after treatment
[5] = leaf treatment 8 g/ha, 14 days after treatment
[6] = leaf treatment 16 g/ha, 14 days after treatment
[7] = leaf treatment 32 g/ha, 14 days after treatment
[8] = leaf treatment 63 g/ha, 14 days after treatment
[9] = leaf treatment 125 g/ha, 14 days after treatment
[10] = leaf treatment 250 g/ha, 14 days after treatment
[11] = leaf treatment 500 g/ha, 14 days after treatment
[12] = leaf treatment 1000 g/ha, 14 days after treatment
[13] = leaf treatment 2000 g/ha, 14 days after treatment
[14] = leaf treatment 4000 g/ha, rated 14 days after treatment vs untreated control, 0% no effect, 100% total destruction

SMILES	% damage, Rice (4 leaves) [1, 3] [%]	% damage, Rice (4 leaves) [1, 4] [%]	% damage, Rice (4 leaves) [1, 5] [%]	% damage, Rice (4 leaves) [1, 6] [%]	% damage, Rice (4 leaves) [1, 7] [%]	% damage, Rice (4 leaves) [1, 8] [%]	% damage, Rice (4 leaves) [1, 9] [%]	% damage, Rice (4 leaves) [1, 10] [%]	% damage, Rice (4 leaves) [1, 11] [%]	% damage, Rice (4 leaves) [1, 12] [%]	% damage, Rice (4 leaves) [1, 13] [%]	% damage, Rice (4 leaves) [1, 14] [%]	% damage, Barnyard grass (4 leaves) [2, 3] [%]	% damage, Barnyard grass (4 leaves) [2, 4] [%]	% damage, Barnyard grass (4 leaves) [2, 5] [%]	% damage, Barnyard grass (4 leaves) [2, 6] [%]	% damage, Barnyard grass (4 leaves) [2, 7] [%]	% damage, Barnyard grass (4 leaves) [2, 8] [%]	% damage, Barnyard grass (4 leaves) [2, 9] [%]	% damage, Barnyard grass (4 leaves) [2, 10] [%]	other results
CC(Oc1ccc(Oc2nc3ccc(Cl)cc3o2)cc1)C(=O)N(C)c1ccccc1F (racemic) [R,S-racemic compound]	0.0	0.0	0.0	0.0	0.0	0.0	0.0	0.0	0.0	0.0	0.0	3.8	0.0	2.5	45.0	100	100	100	100	100	% damage, Barnyard grass (4 leaves) [2, 11]: 100%; % damage, Barnyard grass (4 leaves) [2, 12]: 100%; % damage, Barnyard grass (4 leaves) [2, 13]: 100%; % damage, Barnyard grass (4 leaves) [2, 14]: 100%
C[C@@H](Oc1ccc(Oc2nc3ccc(Cl)cc3o2)cc1)C(=O)N(C)c1ccccc1F [(R)-compound, (R)-2-[4-(6-chloro-2-benzoxazolyloxy)-phenoxy]propionic acid-N-(2-fluorophenyl)-N-methyl amide]	0.0	0.0	0.0	0.0	0.0	0.0	0.0	0.0	0.0	2.5	11.3	22.5	6.3	62.5	98.8	100	100	100	100	100	% damage, Barnyard grass (4 leaves) [2, 11]: 100%; % damage, Barnyard grass (4 leaves) [2, 12]: 100%; % damage, Barnyard grass (4 leaves) [2, 13]: 100%; % damage, Barnyard grass (4 leaves) [2, 14]: 100%
C[C@H](Oc1ccc(Oc2nc3ccc(Cl)cc3o2)cc1)C(=O)N(C)c1ccccc1F [(S)-compound]	0.0	0.0	0.0	0.0	0.0	0.0	0.0	0.0	0.0	0.0	0.0	0.0	0.0	0.0	7.5	65.0	92.5	100	100	100	% damage, Barnyard grass (4 leaves) [2, 11]: 100%; % damage, Barnyard grass (4 leaves) [2, 12]: 100%; % damage, Barnyard grass (4 leaves) [2, 13]: 100%; % damage, Barnyard grass (4 leaves) [2, 14]: 100%
